Here are results for two compounds from US20240374626A1, “METHODS OF ENHANCING MILK PRODUCTION IN LACTATING MAMMALIAN SUBJECTS” (priority 2023, published 2024).

SMILES strings stand for the structures.

The assay deals with CK8+ luminal cells. Nature of the assay: Contralateral intraductal injection: FACS DNA content analysis of CK8+ luminal cells. Type of assay: in vivo, mouse. Here is the method:
Nulliparous analysis was performed using adult (10-12-week-old) female mice. For timed pregnancies and lactation analysis, CD-1 pregnant adult females were obtained from Charles Rivers. Embryos were examined at the time of mammary gland harvesting to confirm pregnancy state. […] Plugged mice were considered to be PD0.5 on the day of the observed plug. All females used in this study were age matched. Mice were anesthetized with isoflurane (VetOne, 501017) Prior to intraductal injections, hair was removed from around the nipples using Nair hair remover. Injections into the duct of the nipple were performed with 33 G needles (Hamilton, 7803-05) and a volume of 40 μl per gland. Right inguinal, abdominal and thoracic glands were injected with doxorubicin (1.5 μg per gland, Cayman Chemical, 15007), nucleosides (40 μl per gland, Millipore-Sigma, ES-008-D) or Mk-1775 (50 μg per gland, Cayman Chemical, 21266), and left glands were injected with PBS or DMSO (Thermo Scientific, BP231) diluted in PBS. Mechanically dissociated inguinal, abdominal, and thoracic mammary fat pads were prepared into cell suspension for flow cytometry or fluorescence-activated cell sorting (FACS). The lymph node was removed from abdominal glands. Glands were chopped using a mechanical tissue chopper and digested for 1 h at 37° C. in digestion media [RPM1 containing 1% FBS, collagenase IA (Sigma, C9891), hyaluronidase (Sigma, H3506) and DNAse I (Worthington, LS002007)]. […] Tissue was further digested using pre-warmed 0.25% Trypsin-EDTA (Thermo Fisher, 25200056), washed, and digested with 5 mg/ml of pre-warmed dispase II (Roche, 4942078001). Red blood cells were lysed using Ammonium Chloride Solution (Stem Cell Technologies, 07850). Cells were washed, resuspended and filter through a 70 μm cell strainer (Falcon, 08-771-2) and processed for downstream applications. For DNA content analysis of the mammary gland CK8^+ epithelial population, mammary gland cells suspension was obtained as described above. Cells were fixed in ice-cold 70% EtOH at a final concentration of 10^6 cells/ml. During fixation, cells were vigorously vortexed for 1 min to avoid the formation of cell aggregates. Cells were washed twice with washing buffer [1×PBS containing 5% FBS and 0.5% tween 20 (Fisher Chemical, BP337500)] and centrifuged at 2,000 rpm for 5 min at 4° C. Cell pellet was incubated for 1 h at room temperature with anti-CK8 (Developmental Studies Hybridoma Lab, TROMA-1), anti-GFP (Thermo Fisher, A01704) or corresponding rat (Thermo-Fisher, 10700) or rabbit (Thermo-Fisher, 10500C) IgG isotype controls. Cells were washed twice and incubated for 1 h at room temperature in darkness with FITC anti-Rat (Thermo Fisher, A24544) or FITC anti-Rabbit (Thermo Fisher, A16030) and APC anti-Rat (Jackson ImmunoResearch, 712-136-153). Cells were washed twice and resuspended in propidium iodide solution [1×PBS containing 25 μg/ml of propidium iodide (Thermo Fisher, P3566) and 100 μg/ml of RNAse (Thermo Fisher, 12091021)]. For DNA content analysis on HC11, cells were washed with 1×DPBS (GIBCO, 14190-250) and harvested using 0.05% Trypsin-EDTA (GIBCO, 25300-062). Cell suspension was washed with 1×DPBS and centrifuged at 1,000 rpm for 5 min at 4° C. Cell pellet was fixed in ice-cold 70% EtOH and then vortexed vigorously to avoid cell aggregates. After fixation, cells were washed with washing buffer [1×PBS (GIBCO, 14190136) supplemented with 5% FBS] and centrifuged at 2,000 rpm for 5 min at 4° C. The pellet was resuspended in propidium iodide solution. Cell suspensions were filtered through a 70 μm cell strainer (Falcon, 08-771-2) and analyzed using a BD LSRII cytometer or a BD FACS Aria II Cell Sorter. Populations were analyzed using FlowJo.

Where [1] appears, read: Mk-1775 IDI at PD16.5 vs contralateral DMSO, by LD5.
Where [2] appears, read: doxorubicin IDI at PD12.5 vs contralateral DMSO, MGs at PD17.5.

In the case of `C=CCn1c(=O)c2cnc(Nc3ccc(N4CCN(C)CC4)cc3)nc2n1-c1cccc(C(C)(C)O)n1` [Mk-1775], the “decrease in 4C CK8+ population (in the overall population)” value reads like this: (Mk-1775 IDI (50 μg per gland) at PD16.5 vs contralateral DMSO, at LD2) 19.4%; under setting [1], 3.2%. Also, the “increase in 2C CK8+ population (in the overall population)” value is, setting by setting: (Mk-1775 IDI at PD16.5 vs contralateral DMSO, LD2) 7.7%; (Mk-1775 IDI at PD16.5 vs contralateral DMSO, LD5) 12.4%. For the same compound, the “decrease in >4C CK8+ population (in the overall population)” value under setting [1] is 16.31%.
Regarding `COc1cccc2c1C(=O)c1c(O)c3c(c(O)c1C2=O)C[C@@](O)(C(=O)CO)C[C@@H]3O[C@H]1C[C@H](N)[C@H](O)[C@H](C)O1` [doxorubicin], under setting [2], the “decrease in 2C luminal population (in the overall population)” value is on record as 5.23%, the “increase in 4C luminal population (in the overall population)” value was found to be 14.86% and the “increase in >4C luminal population (in the overall population)” value is 47.1%.
